{
  "source": "ChEMBL document CHEMBL1157171",
  "about": "“Structure-based virtual screening against SARS-3CL(pro) to identify novel non-peptidic hits” (Bioorg Med Chem, 2008)",
  "key": {"Replicase polyprotein 1a": {"biological_target": "Replicase polyprotein 1a (Severe acute respiratory syndrome-related coronavirus, UniProt P0C6U8)", "experiment": "Inhibition of human SARS coronavirus 3C like protease"}, "[1]": {"biological_target": "Replicase polyprotein 1a (Severe acute respiratory syndrome-related coronavirus) (UniProt P0C6U8)", "experiment": "Inhibition of human SARS coronavirus 3C like protease at 10 uM"}},
  "data": [
    {"compound": "O=C(CSc1nc(C2CCCCC2)nc2ccccc12)NCc1ccco1", "values": [
      {"measurement": "IC50", "setting": "Replicase polyprotein 1a", "value": 18.2, "unit": "µM"},
      {"measurement": "inhibition", "setting": "[1]", "value": 30, "unit": "%"}
    ]},
    {"compound": "Cc1cc2cc(CN(CCc3ccccc3C)C(=O)NCc3ccccc3)c(=O)[nH]c2cc1C", "values": [
      {"measurement": "IC50", "setting": "Replicase polyprotein 1a", "value": 17.2, "unit": "µM"},
      {"measurement": "inhibition", "setting": "[1]", "value": 40, "unit": "%"}
    ]}
  ]
}
